This is an account of results in US8183270B2, “Insecticidal N-substituted (2-substituted-1,3-thiazol)alkyl sulfoximines” (Dow AgroSciences, LLC, priority 2006, dated 2012).

Data set [1] relates to cotton aphid (Aphis gossypii). The experiment in a line: Insecticidal test for cotton aphid in foliar spray assay. It is filed as in vivo. Particulars: foliar spray on squash cotyledons, 3 days after treatment, Corrected % Control (Abbott). The procedure: The compounds identified in the foregoing examples (compounds 1-5) and in Table 1 (compounds 6-18) were tested against cotton aphid using procedures described hereinafter. Insecticidal Test for Cotton Aphid (Aphis gossypii) in Foliar Spray Assay Squash with fully expanded cotyledon leaves were trimmed to one cotyledon per plant and infested with cotton aphid (wingless adult and nymph) 1 day prior to chemical application. Each plant was examined before chemical application to ensure proper infestation (ca. 30-70 aphids per plant). Compounds (2 mg) were dissolved in 2 ml of acetone:methanol (1:1) solvent, forming stock solutions of 1000 ppm. The stock solutions were diluted 5× with 0.025% Tween 20 in H2O to obtain the highest test solution at 200 ppm. A lower test concentration (50 ppm) was prepared by making sequential a 4× dilution from the 200 ppm solution with a diluent consisting 80 parts of 0.025% Tween 20 in H2O and 20 parts of acetone:methanol (1:1). A hand-held Devilbiss sprayer was used to apply the spray solutions until runoff to both sides of the squash cotyledon leaves. Four plants (4 replications) were used for each concentration of each compound. Reference plants (solvent check) were sprayed with the diluent only. Treated plants were held in a holding room for 3 days at approximately 23° C. and 40% RH before the number of live aphids on each plant was recorded. Insecticidal activity was measured by Corrected % Control using Abbott's correction formula and the values for the lower test concentrations are presented in Table 1: Corrected % Control=100*(X−Y)/X • where X=No. of live aphids on solvent check plants • Y=No. of live aphids on treated plants CA 200 refers to % control at 200 ppm against cotton aphid in foliar spray tests, CA 50 refers to % control at 50 ppm against cotton aphid in foliar spray tests, In each case of Table 2 the rating scale is as follows: […]

One may read the melting point as the temperature of the solid-liquid transition. Compound `CS(=O)(Cc1cnc(C(F)(F)F)s1)=NC#N` (stereo not drawn) [Compound 1, Methyl(oxido){[2-(trifluoromethyl)-1,3-thiazol-5-yl]methyl}-λ^4-sulfanylidenecyanamide] showed a melting point of 123 to 124 °C. In data set [1], the “CA 50 (% control at 50 ppm against cotton aphid in foliar spray tests)” value was “A (90-100)” and the “CA 200 (% control at 200 ppm against cotton aphid in foliar spray tests)” value was “A (90-100)”.

Consider `CC(C)(c1cnc(C(F)(F)F)s1)S(C)(=O)=NC#N` (stereo not drawn) [Compound 2, Methyl(oxido){1-methyl-1-[2-(trifluoromethyl)-1,3-thiazol-5-yl]ethyl}-λ^4-sulfanylidenecyanamide], for which, in data set [1], the “CA 50 (% control at 50 ppm against cotton aphid in foliar spray tests)” value is listed as “C (70-79)” and the “CA 200 (% control at 200 ppm against cotton aphid in foliar spray tests)” value is on record as “A (90-100)”.

For the compound `CC(c1cnc(C(F)(F)F)s1)S(C)(=O)=NC#N` (stereo not drawn) [Compound 3, Methyl(oxido){1-[2-(trifluoromethyl)-1,3-thiazol-5-yl]ethyl}-λ^4-sulfanylidenecyanamide], in data set [1], the “CA 50 (% control at 50 ppm against cotton aphid in foliar spray tests)” value is “A (90-100)” and the “CA 200 (% control at 200 ppm against cotton aphid in foliar spray tests)” value is reported as “A (90-100)”.

Regarding `N#CN=S1(=O)CCCC1Cc1cnc(C(F)(F)F)s1` (stereo not drawn) [Compound 4, 1-Oxo-2-(2-trifluoromethyl-thiazol-5-ylmethyl)-tetrahydro-1-λ^6-thiophen-1-ylidene-cyanamide], in data set [1], the “CA 50 (% control at 50 ppm against cotton aphid in foliar spray tests)” value is given as “A (90-100)” and the “CA 200 (% control at 200 ppm against cotton aphid in foliar spray tests)” value is “A (90-100)”.

As for `CS(=O)(Cc1csc(C(F)(F)F)n1)=NC#N` (stereo not drawn) [Compound 5, Methyl(oxido){[2-(trifluoromethyl)-1,3-thiazol-4-yl]methyl}-λ^4-sulfanylidenecyanamide], the melting point is 66 to 68 °C. Moreover, in data set [1], the “CA 50 (% control at 50 ppm against cotton aphid in foliar spray tests)” value is given as “E (50-59)” and the “CA 200 (% control at 200 ppm against cotton aphid in foliar spray tests)” value is “C (70-79)”.
